Patent US11787785B2 (NOVARTIS AG, priority 2021, dated 2023)

Biological target: T1, WIZ protein (HiBit-WIZ fusion protein) (Homo sapiens, UniProt O95785+Q96SW2)
T1 construct: expressed in transfected cells
Assay: Quantification of WIZ protein levels in HiBit tag fusion protein assay (WIZ HiBit assay in 293T cells)
Format: cell-based
Design: remaining activity / Dmax: dose or concentration left out as unconfirmed
Settings: for Dmax at 25 µM: 100 − Amax; for Dmax at 25 µM / remaining activity at 25 µM: 293T cells; for remaining activity at 25 µM: DMSO-normalized, curve-fitted percentage of WIZ-HiBit remaining at 25 uM; for DC50: WIZ HiBit assay in 293T cells, 10-point, 5-fold dose response, highest concentration 25 μM, about 18 hours, read-out: WIZ AC50
Outline: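 Luminescence after LgBit complementation quantified remaining HiBit-WIZ in lysates of single-copy stable 293T lines. Cells dosed ~18 h at 37 °C with 10-point, 5-fold dilutions (highest 25 μM); DMSO set to 100%, fitted curve gave % remaining at 25 μM (Amax).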

[1] = HEK-293T, read-out: % degradation of WIZ (100 − Amax)

T1 sequence (O95785 whole entry, the tested form may be a part): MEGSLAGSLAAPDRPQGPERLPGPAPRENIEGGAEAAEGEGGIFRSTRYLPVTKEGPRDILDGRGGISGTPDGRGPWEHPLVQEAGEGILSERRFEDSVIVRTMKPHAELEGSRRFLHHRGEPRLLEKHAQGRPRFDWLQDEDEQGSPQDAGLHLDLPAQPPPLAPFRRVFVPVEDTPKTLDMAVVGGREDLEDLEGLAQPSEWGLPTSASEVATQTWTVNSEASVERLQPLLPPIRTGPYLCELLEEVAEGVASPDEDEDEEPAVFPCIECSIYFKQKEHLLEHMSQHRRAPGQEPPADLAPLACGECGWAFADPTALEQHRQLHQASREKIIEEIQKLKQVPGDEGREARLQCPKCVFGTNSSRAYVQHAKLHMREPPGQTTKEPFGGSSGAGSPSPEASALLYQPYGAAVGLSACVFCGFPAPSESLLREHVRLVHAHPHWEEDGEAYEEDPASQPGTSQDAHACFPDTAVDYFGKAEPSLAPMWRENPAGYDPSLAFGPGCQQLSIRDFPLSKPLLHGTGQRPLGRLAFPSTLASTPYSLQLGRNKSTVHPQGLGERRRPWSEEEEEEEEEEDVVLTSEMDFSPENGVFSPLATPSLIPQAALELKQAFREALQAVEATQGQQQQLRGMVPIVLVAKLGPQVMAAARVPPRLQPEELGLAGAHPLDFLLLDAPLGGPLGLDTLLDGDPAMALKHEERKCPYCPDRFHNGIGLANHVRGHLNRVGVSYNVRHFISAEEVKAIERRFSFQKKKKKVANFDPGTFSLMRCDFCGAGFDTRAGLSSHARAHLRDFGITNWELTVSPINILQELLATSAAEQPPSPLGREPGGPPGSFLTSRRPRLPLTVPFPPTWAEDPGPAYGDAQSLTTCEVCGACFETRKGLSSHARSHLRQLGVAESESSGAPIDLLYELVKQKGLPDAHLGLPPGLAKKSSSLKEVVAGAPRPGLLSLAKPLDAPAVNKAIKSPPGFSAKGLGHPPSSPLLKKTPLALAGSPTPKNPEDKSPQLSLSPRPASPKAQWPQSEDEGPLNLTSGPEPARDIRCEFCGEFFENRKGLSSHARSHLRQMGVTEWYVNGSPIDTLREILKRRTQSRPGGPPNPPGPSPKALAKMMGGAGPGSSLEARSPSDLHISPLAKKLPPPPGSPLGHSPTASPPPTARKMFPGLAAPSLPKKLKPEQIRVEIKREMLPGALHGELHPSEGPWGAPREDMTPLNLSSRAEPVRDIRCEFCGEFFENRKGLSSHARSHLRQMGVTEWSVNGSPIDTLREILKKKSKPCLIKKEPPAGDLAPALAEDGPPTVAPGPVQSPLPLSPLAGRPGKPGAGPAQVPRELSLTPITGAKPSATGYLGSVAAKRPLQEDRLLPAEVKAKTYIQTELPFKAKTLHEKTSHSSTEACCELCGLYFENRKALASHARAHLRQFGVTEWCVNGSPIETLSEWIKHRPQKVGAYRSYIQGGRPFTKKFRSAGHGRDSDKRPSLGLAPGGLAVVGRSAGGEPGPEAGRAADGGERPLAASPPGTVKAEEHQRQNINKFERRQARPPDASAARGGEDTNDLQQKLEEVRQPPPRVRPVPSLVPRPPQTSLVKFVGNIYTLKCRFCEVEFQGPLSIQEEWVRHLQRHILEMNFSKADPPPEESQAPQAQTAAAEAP
T1 sequence (Q96SW2 whole entry, the tested form may be a part): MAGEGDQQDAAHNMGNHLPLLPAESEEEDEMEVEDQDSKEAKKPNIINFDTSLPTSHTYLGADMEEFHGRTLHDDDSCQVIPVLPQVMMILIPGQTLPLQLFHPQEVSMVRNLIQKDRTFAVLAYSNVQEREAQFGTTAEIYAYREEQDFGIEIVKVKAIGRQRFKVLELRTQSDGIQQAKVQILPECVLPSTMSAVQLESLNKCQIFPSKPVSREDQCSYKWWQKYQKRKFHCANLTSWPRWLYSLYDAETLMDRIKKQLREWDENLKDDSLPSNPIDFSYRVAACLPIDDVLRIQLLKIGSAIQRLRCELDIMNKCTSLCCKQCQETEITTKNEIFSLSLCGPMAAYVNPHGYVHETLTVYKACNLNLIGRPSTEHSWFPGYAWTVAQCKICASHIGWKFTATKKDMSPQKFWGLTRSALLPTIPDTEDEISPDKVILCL
T1 sequence (Q16531 whole entry partner, the tested form may be a part): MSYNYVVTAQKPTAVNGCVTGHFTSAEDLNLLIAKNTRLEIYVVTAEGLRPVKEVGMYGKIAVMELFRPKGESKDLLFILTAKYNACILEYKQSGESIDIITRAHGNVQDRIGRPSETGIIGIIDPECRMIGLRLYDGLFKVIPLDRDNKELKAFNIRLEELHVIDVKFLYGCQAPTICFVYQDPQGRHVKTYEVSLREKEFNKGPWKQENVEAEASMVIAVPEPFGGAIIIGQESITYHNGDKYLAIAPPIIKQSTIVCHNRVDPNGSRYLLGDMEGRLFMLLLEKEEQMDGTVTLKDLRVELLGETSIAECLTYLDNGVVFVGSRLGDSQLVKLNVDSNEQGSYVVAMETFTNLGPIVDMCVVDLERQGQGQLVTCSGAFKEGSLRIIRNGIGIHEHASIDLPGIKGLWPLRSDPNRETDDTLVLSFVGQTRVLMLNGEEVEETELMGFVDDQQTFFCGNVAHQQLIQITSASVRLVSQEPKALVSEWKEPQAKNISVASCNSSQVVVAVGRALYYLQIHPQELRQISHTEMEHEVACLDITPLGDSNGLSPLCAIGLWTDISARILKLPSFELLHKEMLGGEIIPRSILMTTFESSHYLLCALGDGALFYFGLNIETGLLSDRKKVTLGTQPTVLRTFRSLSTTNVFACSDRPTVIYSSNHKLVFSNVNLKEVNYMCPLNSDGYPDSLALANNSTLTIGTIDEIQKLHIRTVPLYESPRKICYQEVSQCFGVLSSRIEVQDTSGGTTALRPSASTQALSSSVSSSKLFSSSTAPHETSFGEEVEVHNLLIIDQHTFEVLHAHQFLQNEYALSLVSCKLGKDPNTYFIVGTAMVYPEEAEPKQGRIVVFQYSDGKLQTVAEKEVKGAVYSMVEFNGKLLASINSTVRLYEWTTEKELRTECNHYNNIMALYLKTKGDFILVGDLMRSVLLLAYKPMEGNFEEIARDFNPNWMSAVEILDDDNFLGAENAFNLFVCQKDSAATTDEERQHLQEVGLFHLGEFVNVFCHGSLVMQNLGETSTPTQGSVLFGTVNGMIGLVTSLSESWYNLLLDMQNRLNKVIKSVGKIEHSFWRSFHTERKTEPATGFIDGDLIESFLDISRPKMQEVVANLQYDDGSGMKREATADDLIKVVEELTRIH

Row | Dmax at 25 µM [1] [%] | remaining activity at 25 µM (HEK-293T, read-out: WIZ Amax) [%] | DC50 [µM] | SMILES | Dmax [1] [%] | remaining activity (HEK-293T, read-out: WIZ Amax) [%]
1 | 83 | 17 | 0.01 | C[C@@H]1C[C@H](Cc2ccn3ncc(N4CCC(=O)NC4=O)c3c2)CCN1CC1CCC(F)(F)CC1 [Example 78] | – | –
2 | 13 | 87 | 3.06 | O=C1CCN(c2cnn3ccc(CN4CCN(CCC5CCCCC5)C(=O)C4)cc23)C(=O)N1 [Example 243, 1-(5-((4-(2-cyclohexylethyl)-3-oxopiperazin-1-yl)methyl)pyrazolo[1,5-a]pyridin-3-yl)dihydropyrimidine-2,4(1H,3H)-dione] | – | –
3 | 84 | 16 | 0.051 | CC(C)CCN1CCN(Cc2ccn3ncc(N4CCC(=O)NC4=O)c3c2)C[C@@H]1C [Example 204] | – | –
4 | 82 | 18 | 0.183 | C[C@H]1C[C@H](Cc2ccn3ncc(-n4ccc(=O)[nH]c4=O)c3c2)CCN1C(=O)C1CC1 [Example 355, 1-(5-(((2S,4R)-1-(cyclopropanecarbonyl)-2-methylpiperidin-4-yl)methyl)pyrazolo[1,5-a]pyridin-3-yl)pyrimidine-2,4(1H,3H)-dione] | – | –
5 | 64 | 36 | 0.103 | O=C1CCN(c2cnn3ccc(CC4CCN(CC5(C(F)(F)F)CC5)CC4)cc23)C(=O)N1 [Example 55, 1-(5-((1-((1-(trifluoromethyl)cyclopropyl)methyl)piperidin-4-yl)methyl)pyrazolo[1,5-a]pyridin-3-yl)dihydropyrimidine-2,4(1H,3H)-dione] | – | –
6 | 90 | 10 | 0.001 | O=C1CCN(c2cnn3ccc(CC4CCN(CC56CC7CC(CC(C7)C5)C6)CC4)cc23)C(=O)N1 [Example 117] | – | –
7 | 73 | 27 | 0.049 | CC(C)(CN1CCC(Cc2ccn3ncc(N4CCC(=O)NC4=O)c3c2)CC1)C(F)(F)F [Example 62, 1-(5-((1-(3,3,3-trifluoro-2,2-dimethylpropyl)piperidin-4-yl)methyl)pyrazolo[1,5-a]pyridin-3-yl)dihydropyrimidine-2,4(1H,3H)-dione] | – | –
8 | 55 | 45 | 2.58 | COc1ccccc1CN1CCC(Cc2ccn3ncc(N4CCC(=O)NC4=O)c3c2)CC1 [Example 122, 1-(5-((1-(2-methoxybenzyl)piperidin-4-yl)methyl)pyrazolo[1,5-a]pyridin-3-yl)dihydropyrimidine-2,4(1H,3H)-dione] | – | –
9 | 77 | 23 | 0.071 | O=C1CCN(c2cnn3ccc(CN4CCN(CC5CCC5)CC4)cc23)C(=O)N1 [Example 188, 1-(5-((4-(cyclobutylmethyl)piperazin-1-yl)methyl)pyrazolo[1,5-a]pyridin-3-yl)dihydropyrimidine-2,4(1H,3H)-dione] | – | –
10 | 43 | 57 | > 25 | CC(C)COC(=O)N1CCC(Cc2ccn3ncc(N4CCC(=O)NC4=O)c3c2)CC1 [Example 95] | – | –
11 | 68 | 32 | 0.095 | O=C1CCN(c2cnn3ccc(CC4(F)CCN(CC5CCCCC5)CC4)cc23)C(=O)N1 [Example 123, 1-(5-((1-(cyclohexylmethyl)-4-fluoropiperidin-4-yl)methyl)pyrazolo[1,5-a]pyridin-3-yl)dihydropyrimidine-2,4(1H,3H)-dione] | – | –
12 | 80 | 20 | 0.008 | CC(C)C(=O)N1CC[C@@H](Cc2ccn3ncc(N4CCC(=O)NC4=O)c3c2)C[C@@H]1C [Example 288] | – | –

Row | SMILES | Dmax at 25 µM [1] [%] | remaining activity at 25 µM (HEK-293T, read-out: WIZ Amax) [%] | DC50 [µM] | Dmax [1] [%] | remaining activity (HEK-293T, read-out: WIZ Amax) [%]
13 | CC(C)C(=O)N1CCC(Cc2ccn3ncc(N4CCC(=O)NC4=O)c3c2)CC1 [Example 98, 1-(5-((1-isobutyrylpiperidin-4-yl)methyl)pyrazolo[1,5-a]pyridin-3-yl)dihydropyrimidine-2,4(1H,3H)-dione] | – | – | 0.587 | 59 | 41
